Source: patent US7052871B2, “Methods of improving transformation efficiency of plants with auxin responsive promoter sequences” (Pioneer Hi-Bred International, Inc., priority 2000, dated 2006)

Experiments:
[1] = tested on: ZmAxig1 mRNA; assay: Northern blot of mRNA from treated plants probed with SEQ ID No. 12 (CJLP181); type: in vivo, Zea mays; details: for hybridization of SEQ ID No. 12 probe with mRNA from anther or entire aerial portion of treated plants: anther or entire aerial portion of treated plants (FIG. 4)
[2] = tested on: male fertility of pZmAxig1:Ms45 plants; assay: Fertility restoration in ms45 male sterile maize plants transformed with V2 (pZmAxig1:Ms45); type: in vivo, Zea mays
Source text: A second DNA plasmid was constructed by combining the ZmAxig1 promoter (1306 bases 5′ of start codon; SEQ ID NO: 16) with the Ms45 coding sequence and 35S:PAT in a T-DNA vector. This plasmid was cointegrated with Japan Tobacco plasmid pSB1 to create a second suitable vector, V2.
Maize GS3Ms45EX4 embryos, segregating for homozygous ms45 (male sterile) and Ms45/ms45 (male fertile) genotypes, were transformed with the first and second vectors using Agrobacterium.
Transformed cell lines homozygous for the ms45 male sterile genotype were screened by quantitative PCR screening and advanced for regeneration into plants. Positive lines were transferred to 289B medium, an MS-based medium containing bialaphos and carbenicillin, with lower sucrose and hormone levels, to initiate plant regeneration. Following somatic embryo maturation (2–3 weeks), well-developed somatic embryos were transferred to medium for germination and transferred to the lighted culture room. Approximately 7 days later, developing plantlets were transferred to medium in tubes for 7 days until plantlets were well established. Plants were then transferred to inserts in flats (equivalent to 2.5″ pot) containing potting soil and grown for one week in a growth chamber, subsequently grown an additional 1–2 weeks in the greenhouse, then transferred to classic 600 pots (1.6 gallon) and grown to maturity.
From each of 20 independent callus lines transformed with V2, six regenerated plants were grown in the greenhouse. […] The plants were scored for fertility after tassels emerged.

[3] = tested on: ZmAxig1 mRNA in BMS (Black Mexican Sweet) maize cells; assay: Northern blot of mRNA from BMS cells cultured on auxin-containing medium, probed with SEQ ID No. 12; type: cell-based, Zea mays; details: BMS cultured cells (FIG. 4)
[4] = tested on: ZmAxig1 expression in anthers
Description: Progeny of transgenic maize plants, hemizygous for the maize anther-preferred promoter 5126 (U.S. Pat. Nos. 5,689,049 and 5,689,051) driving DAM methylase linked with 35S:PAT (p5126:DAM/35S:PAT), were grown in the greenhouse. Expression of p5126:DAM is known to ablate the tapetum prior to the quartet stage of microspore development, which results in male sterile plants.
Plants segregating for male fertile/glufosinate-ammonium susceptible phenotype (wild-type) or for male sterile/glufosinate-ammonium resistant phenotype (p5126:DAM/35S:PAT), were treated with a dicamba soil drench as described above, or were not treated. Quartet/early-uninucleate stage anthers were harvested from these plants and mRNA was isolated with the QuickPrep® Micro mRNA purification kit (Amersham Pharmacia, Piscataway, N.J.) according to the manufacturer's instructions.
(§1) Quartet/early-uninucleate stage anthers from dicamba-treated or non-treated plants were harvested and embedded for in situ hybridization or frozen for mRNA isolation as described above.

[5] = tested on: cDNA fragments (w0h051.7, ZmAxig1); details: anthers; two daily soil drenches of 12 μl dicamba formulation in 450 ml water
Source text: Anthers containing microsporocytes at meiosis […] through early uninucleate stages of development were harvested on the third day and frozen. Anthers containing microsporocytes at prophase through early uninucleate stages of development were harvested from non-treated plants. Frozen tissues were ground and total RNA extracted with Tripure™ isolation reagent (Boehringer Mannheim, Indianapolis, Ind.) according to the manufacturer's instructions.
RNA isolated from anthers of three dicamba-treated plants and three non-treated plants was sent to laboratories of CuraGen Corporation (New Haven, Conn.) for quantitative expression profiling. […] (FIG. 3)

[6] = tested on: ZmAxig1 transcripts in the tapetum; details: treated plants (FIG. 7)
Source text: as §1

`CN(C)C(=O)Nc1ccc(Cl)c(Cl)c1` [Diuron] was tested, and the “hybridization of SEQ ID No. 12 probe with mRNA from anther or entire aerial portion of treated plants” value [1] was “did not hybridize”.

For `NC(=O)NS(=O)(=O)c1ccccc1Cl` [CBSU], the “hybridization of SEQ ID No. 12 probe with mRNA from anther or entire aerial portion of treated plants” value [1] was “did not hybridize”.

For `O=C(O)c1nc(Cl)ccc1Cl` [clopyralid], the “plants showing partial to complete male fertile phenotypes, foliar application” value ([2]; 10 μl clopyralid formulation, foliar application with 1 ml water, homozygous ms45 V2 progeny) was “Two of five” and the “plants showing partial to complete male fertile phenotypes, soil drench application” value ([2]; 10 μl clopyralid formulation, soil drench with 200 ml water, homozygous ms45 V2 progeny) was “three of six”.

In the case of `C=CCN(CC=C)C(=O)C(Cl)Cl` [Dichlormid], the “hybridization of SEQ ID No. 12 probe with mRNA from anther or entire aerial portion of treated plants” value [1] is reported as “did not hybridize”.

`CC1=C(C(=O)Nc2ccccc2)SCCO1` [Carboxin] was tested, and the “hybridization of SEQ ID No. 12 probe with mRNA from anther or entire aerial portion of treated plants” value [1] was “did not hybridize”.

In the case of `COCC(=O)N(c1c(C)cccc1C)C(C)C(=O)OC` (stereo not shown) [Metalaxyl], the “hybridization of SEQ ID No. 12 probe with mRNA from anther or entire aerial portion of treated plants” value [1] is reported as “did not hybridize”.

`O=C(O)COc1ccc(Cl)cc1Cl` [2,4-D, 2,4-dichlorophenoxyacetic acid] was tested, and the “hybridization of SEQ ID No. 12 probe with mRNA from BMS maize cultured on medium containing the auxin” value [3] was “hybridized”.

For `COc1c(Cl)ccc(Cl)c1C(=O)O` [dicamba], the “plants with fertile phenotype” value ([2]; of 81 treated V2 plants) was 33 plants, the “plants with shedder (partially fertile) phenotype” value ([2]; of 81 treated V2 plants) was 36 plants and the “plants that produced anthers with pollen” value ([2]; of 81 treated V2 plants, daily soil drench 3 μl dicamba formulation, one to three days) was 69 plants. The “viability of pollen from treated plants” value ([2]; pollen from 9 treated plants used to pollinate non-transformed ears, kernels germinated) was “viable”, the “ZmAxig1 expression in anthers of treated plants (Northern blot)” value ([4]; quartet/early-uninucleate stage anthers) was “induced” and the “induction of ZmAxig1 expression in anthers from wild-type male fertile plants” value ([4]; soil drench, quartet/early-uninucleate stage anthers (FIG. 6)) was “induced expression of ZmAxig1”. The “induction of ZmAxig1 expression in anthers from male sterile p5126:DAM/35S:PAT plants” value ([4]; soil drench, tapetum-ablated male sterile plants (FIG. 6)) was “not in anthers from male sterile plants”, the “hybridization of SEQ ID No. 12 probe with mRNA from anthers of treated plants” value ([1]; anthers, northern blot (FIG. 3)) was “hybridized very strongly” and the “hybridization of SEQ ID No. 12 probe with mRNA from tassel or whorl leaf of treated plants” value ([1]; tassel or whorl leaf, northern blot (FIG. 3)) was “to a lesser degree”. The “expression level of induced cDNA fragments relative to the control” value [5] was “greater than 2.5 fold” and the “in situ hybridization of ZmAxig1 antisense RNA probe to RNA in tapetum of anthers and microspores” value [6] was “strong in situ hybridization”.
